Results published in US20230138225A1, “PYRAZOLE CARBOXYLATE ESTER COMPOUND AND USE THEREOF” (SHENYANG SINOCHEM AGROCHEMICALS R&D CO., LTD., priority 2020, published 2023).

Columns and labels:
Assay in all cases: Herbicidal activity, post-emergence stem and leaf spray in greenhouse
Assay type in all cases: in vivo
Settings in all cases: Post-emergence treatment
[1] = test system: Setaria glauca (L.) Beauv.
Text: (§1) Seeds of broadleaf weeds (Zinnia elegans Jacq. and Abutilon theophrasti Medic.) or grass weeds (Setaria glauca (L.) Beauv. and Echinochloa crusgalli (L.) Beauv.) were respectively sown in a paper cup having a diameter of 7 cm and containing nutrient soil. After sowing, the seeds were covered with 1 cm of soil, the soil was pressed and watered, and then the seeds were cultivated in a greenhouse according to a conventional method, and stems and leaves were sprayed after 2-3 leaf stage of the weeds.
(§2) The compounds of the present invention were dissolved in acetone, and then diluted with 0.1% aqueous solution of Tween 80 to form the test liquid. According to the design dose of the test, spray treatment was carried out by track sprayer (Engineer Research Ltd., pressure 1.95 kg/cm^2, volume 500 L/hm^2, track speed 1.48 km/h). The test was repeated for three times. The test material was treated and then placed in an operation hall. The medicinal liquid was naturally dried in the shade, and then was placed in a greenhouse and managed according to the conventional method. The response of the weeds to the drug was visually observed and recorded. After treatment, the state of growth of the respective weeds were visually observed regularly to determine the growth inhibition rate (%) in accordance with the following evaluation standard.
(§3) Growth inhibition rate (%): 0=no discernible action: 100=all weeds dead or not emerged.

[2] = test system: Abutilon theophrasti Medic.
Text: as §1, §2, §3

[3] = test system: Zinnia elegans Jacq.
Text: as §1, §2, §3

[4] = dose 37.5 g a.i./hm^2, Table 3 parallel test
[5] = dose 75 g a.i./hm^2, Table 3 parallel test

Compound | growth inhibition rate % ([1]; dose 37.5 g a.i./hm^2, Table 2) [%] | growth inhibition rate % ([1]; dose 150 g a.i./hm^2, Table 2) [%] | growth inhibition rate % ([1]; dose 600 g a.i./hm^2, Table 2) [%] | growth inhibition rate % [2, 4] [%] | growth inhibition rate % [2, 5] [%] | growth inhibition rate % [1, 4] [%] | growth inhibition rate % [1, 5] [%] | growth inhibition rate % [3, 4] [%] | growth inhibition rate % [3, 5] [%]
CCn1nc(C(=O)Oc2c(C(=O)c3ccc(S(C)(=O)=O)c(OCC4CC4)c3C)c(C)nn2C)cc1C [Compound 1-20] | 65 | 100 | 100 |  |  |  |  |  | 
C=CCOc1c(S(C)(=O)=O)ccc(C(=O)c2c(C)nn(C)c2OC(=O)c2cc(C)n(CC)n2)c1C [Compound 1-26] | 75 | 100 | 100 |  |  |  |  |  | 
CCn1nc(C(=O)Oc2c(C(=O)c3ccc(S(C)(=O)=O)c(OCCOC)c3C)cnn2CC)cc1C [Compound 1-32] | 90 | 100 | 100 | 100 | 100 | 90 | 100 | 100 | 100
CCn1nc(C(=O)Oc2c(C(=O)c3ccc(S(C)(=O)=O)c(OCCOC)c3C)c(C)nn2C)cc1C [Compound 1-33] | 70 | 100 | 100 |  |  |  |  |  | 
CCn1nc(C(=O)Oc2c(C(=O)c3ccc(S(C)(=O)=O)c(OCCOC)c3C)c(C)nn2C(C)C)cc1C [Compound 1-34] | 65 | 100 | 100 |  |  |  |  |  | 
CCc1nn(C)c(OC(=O)c2cc(C)n(CC)n2)c1C(=O)c1ccc(S(C)(=O)=O)c(OCCOC)c1C [Compound 1-36] | 70 | 100 | 100 |  |  |  |  |  | 
CCn1nc(C(=O)Oc2c(C(=O)c3ccc(S(C)(=O)=O)c(OCCOC)c3C)c(C)nn2CC)cc1C [Compound 1-37] | 100 | 100 | 100 |  |  |  |  |  | 
CCOCCOc1c(S(C)(=O)=O)ccc(C(=O)c2c(C)nn(C)c2OC(=O)c2cc(C)n(CC)n2)c1C [Compound 1-44] | 70 | 100 | 100 |  |  |  |  |  | 
CCn1nc(C)cc1C(=O)Oc1c(C(=O)c2ccc(S(C)(=O)=O)c(OCCOC)c2C)cnn1CC [Compound 1-139] | 80 | 100 | 100 |  |  |  |  |  | 
CCn1nc(C)cc1C(=O)Oc1c(C(=O)c2ccc(S(C)(=O)=O)c(OCCOC)c2C)c(C)nn1C [Compound 1-140] | 80 | 100 | 100 |  |  |  |  |  | 
CCn1ncc(C(=O)c2ccc(S(C)(=O)=O)c(COCC(F)(F)F)c2Cl)c1OC(=O)c1cn(C)nc1C [KC3, fenpyrazone, reference compound] |  |  |  | 30 | 95 | 60 | 70 | 40 | 50
